Assay results from patent publication US20050148514A1, “Method and composition for treatment of angiogenesis” (priority 2003, published 2005).
“Also recorded” adds a separate entry of the source. Where no end group is shown, it is not given here.

How the values were obtained:
[1] = tested on: MAPK/JNK pathway (SRE); experiment: SEAP gene-reporter assay in U-87 glioma cells, SRE element; assay type: cell-based; settings: alkaline phosphatase activity in extracellular media
Description: (§1) In order to investigate the potential intracellular pathways triggered by the PCK3145 derivative, a gene-reporter assay using the SEAP (Secreted Alkaline Phosphatase) Mercury Profiling Kit (CLONTECH) was performed in glioma cells (U-87). This assay enables the monitoring of transcription factors that are triggered by a particular experimental condition by assaying the alkaline phosphatase activity in the extracellular media. […] The induction of the MAPK pathway by the PCK3145 derivative is further confirmed by the rapid and transient induction of ERK phosphorylation between 5-10 minutes (FIG. 8B) and is shown to be dose-dependent (FIG. 8C). Finally, the effects of the PCK3145 derivative were also compared to those of a scrambled peptide.

[2] = tested on: total MMP-9, i.e., human active and pro-MMP-9; experiment: Total MMP-9 ELISA (Quantikine) on plasma of prostate cancer patients treated with the drug; assay type: in vivo; settings: for MMP-9 level in plasma, D27C1: day 27 of treatment cycle 1; for Maximum Reduction of MMP-9: versus baseline D1C1; for MMP-9 level in plasma, D27C2: day 27 of treatment cycle 2
Description: The reconstituted drug used in the present example is made from a solution containing a 20 mg/mL of PCK3145 derivative (SEQ ID NO.:5 derivative); SEQ ID NO.: 7, in a phosphate buffer at pH 7.4 for dilution in sterile saline (0.9% NaCl, BP) prior to intravenous administration. The solutions is filled into Type 1 glass vials, stoppered with Teflon®-faced butyl stoppers, and sealed with flip-off seals.
The drug was administered to patients characterized as having metastatic adenocarcinoma of the prostate, stage 1V prostatic cancer and as having a metastatic hormone resistant prostatic cancer.
Biological samples were drawn during different time points. Plasma samples were placed on dry ice and stored frozen (approximately −70° C.) and subsequently analyzed for total MM P-9 levels.
MMP-9 assay methodology. An Elisa assay measuring total MMP-9, i.e., human active and pro-MMP-9, (Quantikine®, Cat. No.: DMP900, R&D Systems Inc.) was performed on plasma-heparin samples. Plasma samples have been collected from individuals at day 1 (before treatment) and at day 27 of each treatment cycle.
The Quantikine® MMP-9 immunoassay is a solid phase ELISA designed to measure total MMP-9 (92 kDa pro- and 82 kDa active forms) in serum, plasma, saliva, urine and cell culture supernatants. It is calibrated with CHO-cells expressed recombinant human pro-MMP-9 and the antibodies were raised against the recombinant factor. Both antibodies also recognize recombinant human active MMP-9.
The assay employs the quantitative sandwich enzyme immunoassay technique. A monoclonal antibody specific for MMP-9 has been pre-coated onto a microplate. Standards and samples are added into the wells, and MMP-9 is thus bound by the immobilized antibody. After washing away unbound substances, an enzyme-linked polyclonal antibody specific for MMP-9 is added to the wells. Following a wash to remove unbound antibody-enzyme reagent, a substrate solution is added to the wells and color develops in proportion to the amount of total MMP-9 (pro and/or active) bound in the initial step. The color development is stopped and the intensity of the color is measured.
Results of MMP-9 levels in patient's plasma, before and after one or more treatment cycle with PCK3145 derivative; SEQ ID NO.: 7 are illustrated in Table 2.
Normal values of healthy volunteers were not determined in this study but lizasa et al., has determined that the normal range of plasma MMP-9 concentrations is about 11.4 to 59.4 ng/ml. Based on theses values, patients were sub-divided into two categories; those having normal value of MMP-9 (below 100 μg/L) and those having an elevated level of MMP-9 (higher than 100 μg/L) at baseline (see column identified as D1C1 in Table2).

[3] = tested on: NFkB pathway; experiment: SEAP gene-reporter assay in U-87 glioma cells, NFkB element; assay type: cell-based; settings: alkaline phosphatase activity in extracellular media
Description: as §1

Sequence: EWQTDNCETCTCYET (cysteine pairing not given here)
- SEAP reporter, MAPK/JNK pathway (SRE) [1]: triggers significantly; also recorded: extremely strong
- change in MMP-9 levels compared to baseline ([2]; elevated MMP-9 category (patients A, B, C and D), each patient after one cycle of treatment): significant decrease
- change in MMP-9 levels compared to baseline ([2]; normal value MMP-9 category (patients E, F, G, H and I), after one cycle of treatment): no significant decrease
- decrease in MMP-9 levels compared to baseline levels ([2]; patient A, after one cycle of treatment): up to 89%
- MMP-9 level in plasma, D27C1 ([2]; patient A, elevated MMP-9 (baseline D1C1 424)): 47.3 µg/L
- Maximum Reduction of MMP-9 ([2]; patient A): 89%
- decrease in MMP-9 ([2]; patient B, after cycle 1): 41%
- MMP-9 level in plasma, D27C1 ([2]; patient B, elevated MMP-9 (baseline D1C1 156.5)): 91.6 µg/L
- reduction of baseline level of MMP-9 ([2]; patient B, treatment cycle 2): 64%
- reduction of baseline level of MMP-9 ([2]; patient B, treatment cycle 3): 65%
- reduction of baseline level of MMP-9 ([2]; patient B, treatment cycle 4): 75%
- Maximum Reduction of MMP-9 ([2]; patient B): 75%
- decrease in MMP-9 ([2]; patient C, at cycle 1): 90%
- reduction in MMP-9 levels ([2]; patient C, cycle 2): 76%
- MMP-9 level in plasma, D27C1 ([2]; patient C, elevated MMP-9 (baseline D1C1 155)): 14.9 µg/L
- Maximum Reduction of MMP-9 ([2]; patient C): 90%
- decrease in MMP-9 ([2]; patient D, at cycle 1): 34%
- MMP-9 level in plasma, D27C1 ([2]; patient D, elevated MMP-9 (baseline D1C1 130.2)): 85.2 µg/L
- Maximum Reduction of MMP-9 ([2]; patient D): 34%
- MMP-9 level in plasma, D27C2 ([2]; patient E (baseline D1C1 57.5)): 60.1 µg/L
- change in MMP-9 levels compared to baseline ([2]; patient E, after 3 cycles of treatment): still no MMP-9 decrease
- MMP-9 level in plasma, D27C1 ([2]; patient E, normal MMP-9 (baseline D1C1 57.5)): 58 µg/L
- MMP-9 level in plasma, D27C1 ([2]; patient F, normal MMP-9 (baseline D1C1 53.2)): 73.1 µg/L
- MMP-9 level in plasma, D27C2 ([2]; patient G (baseline D1C1 33.9)): 189.6 µg/L
- MMP-9 level in plasma, D27C1 ([2]; patient G, normal MMP-9 (baseline D1C1 33.9)): 45.4 µg/L
- MMP-9 level in plasma, D27C2 ([2]; patient H (baseline D1C1 57.0)): 65 µg/L
- MMP-9 level in plasma, D27C1 ([2]; patient H, normal MMP-9 (baseline D1C1 57.0)): 44.0 µg/L
- MMP-9 level in plasma, D27C1 ([2]; patient I, normal MMP-9 (baseline D1C1 22.1)): 18.8 µg/L
- change in MMP-9 levels compared to baseline ([2]; patients E and G, after 2 cycles of treatment): no decrease in MMP-9 levels was observed
- SEAP reporter, NFkB pathway [3]: triggers significantly
